According to US12378199B2, “Rigidified pentadentate chelating agents useful for the [Al18F]2+ labelling of biomolecules” (UNIVERSITÀ DEGLI STUDI DEL PIEMONTE ORIENTALE “A. AVOGADRO”, priority 2019, dated 2025):

Assay: stability of the AlF-18 complexes by incubation in human serum
Format: in vitro ADME
Method: The reactions for labelling with [AlF-18]^2+ were carried out at various pH (between 4 and 6.5) and at various temperatures (25, 37 and 80°). The preparation of [AlF-18]^2+ and the subsequent labelling with the chelating agents covered by the present patent were carried out according to the procedure cited by Bormans and colleagues (Nature Prot. 2018, 13, 2330-2347). The labeled products were purified using Sep-Pak Alumina N Plus Light cartridges and eluted with a 0.9% NaCl solution. All of the products were analyzed by means of radio-TLC and radio-HPLC and the stability of the tracers was studied at 10, 30, 60, 120 and 240 minutes by means of incubation in […] different solutions: human serum, PBS, EDTA 5 mM and 0.9% NaCl solutions.
An additional advantage is the stability in human serum detected for the compounds of the present invention. An increased stability in human serum was measured for the chelating agent 2-AMPDA-HB, with 90% of AlF-18 still complexed after 120 minutes, whereas the complexed percentage was 55% for the chelating agent 2-AMPTA.

O=C(O)CN(CC(=O)O)CC1CCCCN1CC(=O)O (centres unmarked) [2-AMPTA]
AlF-18 still complexed in human serum (after 120 minutes): 55% | stability of the AlF-18 complexes in human serum (after 240 minutes): 33%
